Values quoted from earlier work, collected in US12171237B2, “Insect repelling compositions and methods of manufacture thereof” (priority 2019, dated 2024).
Entries after “also recorded” stand apart in the source; their conditions may differ. Where two headings read alike, the source gives them in different places.

What was measured:
female Ae. aegypti = conditions: Human-bait assay
[1] = system: female Cx. pipiens pallens
[2] = system: Cx. pipiens pallens, Cx. pipiens quinquefasciatus
female Ae. albopictus = conditions: spatial repellent, 0.25 μg·cm^−2, after 48 h exposure
Ae. aegypti = conditions: 1 h, 1.92 μg·cm^−2
Ae. albopictus = conditions: 1 h, 1.92 μg·cm^−2
Mosquito = conditions: d-α-pinene

Compound | repellency (female Ae. aegypti; 1.4 mg·cm^−2) | repellency (†) (Ae. aegypti) [%] | repellency (‡) (Ae. albopictus) [%] | other results
C=CC(C)(O)CCC=C(C)C (racemic) [Linalool] | ^a1.4 mg (±)-linalool · cm^−2 = 67% repellency | – | – | –
CC(C)=CCCC(C)CCO (centres unmarked) [Citronellol] | – | – | – | Repellency (in words) (female An. gambiae): repellent component; also recorded: feeding deterrent/repellent, spatial repellent/inhibitor
C=CCc1ccc(O)c(OC)c1 [Eugenol] | – | – | – | Repellency (in words) [1]: high repellency
CC(C)=CCC/C(C)=C/C=O [Geranial] | – | – | – | blood-sucking by mosquitoes reduced by ([2]; at 0.2 mg·cm^−2, after 1 h): 10%; blood-sucking by mosquitoes reduced by ([2]; at 0.2 mg·cm^−2, after 2 h): 15%; blood-sucking by mosquitoes reduced by ([2]; at 0.2 mg·cm^−2, after 3 h): 18%
CC(C)=CCC/C(C)=C/CO [Geraniol] | – | – | – | (reversible) inhibition of host-seeking (female Ae. albopictus): spatial repellent: 0.25 μg · cm^−2 ca. 100% (reversible)
CCCCCCCC/C=C\CCCCCCCC(=O)O [Oleic acid] | – | – | – | repellency (female Ae. aegypti; 0.4 mg·cm^−2, after 1 h): 0.4 mg · cm^−2 = 52% repellency after 1 h^a
CC1=CCC(O)(C(C)C)CC1 (centres unmarked) [Terpinen-4-ol] | ^a1.4 mg · cm^−2 = 83% repellency | 92 | 85 | –
CC1=CCC2CC1C2(C)C (stereo not drawn) [α-Pinene] | – | – | – | protection (Mosquito): d-α-pinene , 2 h protection
CC1=CC=C(C(C)C)CC1 [α-Terpinene] | ^a1.4 mg · cm^−2 = 15% repellency | 68 | 55 | –
CC1=CCC(C(C)C)=CC1 [γ-Terpinene] | – | 60 | 72 | –
